Measured values as given in patent US5288720A, “Angiotensin II receptor blocking 2,3,6 substituted quinazolinones” (American Cyanamid Company, priority 1993, dated 1994).

Experiments:
[1] = test system: ANGIOTENSIN II VASOPRESSOR RESPONSE; test: AII Challenge: blockade of angiotensin II vasopressor response in conscious SHR; assay type: in vivo, rat (Conscious Male Okamoto-Aoki SHR); details: SHR n=2
Description: By administering a compound of this invention to a rat, and then challenging with angiotensin II, a blockage of the vasopressor response is realized.
Conscious Male Okamoto-Aoki SHR, 16-20 weeks old, weighing approximately 330 g are purchased from Charles River Labs (Wilmington, Mass.). Conscious rats are restrained in a supine position with elastic tape. The area at the base of the tail is locally anesthetized by subcutaneous infiltration with 2% procaine. The ventral caudal artery and vein are isolated, and a cannula made of polyethylene (PE) 10-20 tubing (fused together by heat) is passed into the lower abdominal aorta and vena cava, respectively. The cannula is secured, heparinized (1,000 I.U./ml), sealed and the wound is closed. The animals are placed in plastic restraining cages in an upright position. The cannula is attached to a Statham P23Db pressure transducer, and pulsatile blood pressure is recorded to 10-15 minutes with a Gould Brush recorder. (Chan et al., (Drug Development Res., 18:75-94, 1989).
Angiotensin II (human sequence, Sigma Chem. Co., St. Louis, MO) of 0.05 and 0.1 ug/kg i.v. is injected into all rats (predosing response). Then a test compound, vehicle or a known angiotensin II antagonist is administered i.v., i.p. or orally to each set of rats. The two doses of angiotensin II are given to each rat again at 30, 60, 90, 120, 180, 240 and 300 minutes post dosing the compound or vehicle. The vasopressor response of angiotensin II is measured for the increase in systolic blood pressure in mmHg. The percentage of antagonism or blockade of the vasopressor response of angiotensin II by a compound is calculated using the vasopressor response (increase in systolic blood pressure) of angiotensin II of each rat predosing the compound as 100%. A compound is considered active if at 30 mg/kg i.v. it antagonized at least 50% of the response.

Angiotensin II Receptor = target: T1, Angiotensin II Receptor (Bos taurus, UniProt P25104); test: Receptor Binding Assay: Binding of [^125 I](Sar^1,Ile^8)AngII to beef adrenal cortex membranes; details: 60 min, room temperature
T1 construct: The brownish tissue forming the adrenal cortex is scraped off and finely minced with scissors before homogenization; from tissue; host or cells: beef adrenal cortex, microsomal membranes (100,000×g pellet); fresh glands from a local slaughter house (Maxwell-Cohen)
T1 sequence (P25104 1-359): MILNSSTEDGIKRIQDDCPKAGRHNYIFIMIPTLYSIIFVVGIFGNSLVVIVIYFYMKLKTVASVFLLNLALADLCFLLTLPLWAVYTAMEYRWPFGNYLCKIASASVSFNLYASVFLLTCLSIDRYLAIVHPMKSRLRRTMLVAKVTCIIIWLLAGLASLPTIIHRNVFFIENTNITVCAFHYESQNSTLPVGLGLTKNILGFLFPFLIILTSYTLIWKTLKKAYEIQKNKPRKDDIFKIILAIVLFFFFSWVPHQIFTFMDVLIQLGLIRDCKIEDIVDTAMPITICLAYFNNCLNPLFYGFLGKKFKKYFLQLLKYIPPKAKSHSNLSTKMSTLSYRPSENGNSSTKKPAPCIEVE
Description: Beef adrenals are obtained from a local slaughter house (Maxwell-Cohen). [^125 […]. 2200 Ci/mmole, is purchased from Dupont (NEN®, Boston, Mass.). All unlabeled AngII analogs, Dimethylsulfoxide (DMSO), nucleotides, bovine serum albumin (BSA) are purchased from Sigma Chemical Co., St. Louis, Mo. U.S.A. […] Approximately sixteen (16) to twenty (20) beef adrenal glands are processed as follows: fresh adrenal glands received on crushed ice are cleaned of fatty tissues and the tough membranes encapsulating the glands are removed and discarded. The brownish tissue forming the adrenal cortex is scraped off and finely minced with scissors before homogenization. Care is taken to avoid contamination with medullary tissue during dissection. The scraped cortices are suspended in twenty volumes of an ice-cold buffer medium consisting of 10 mM Tris.HCl (pH 7.4 at 22° C.) and containing 1.0 mM EDTA and 0.2M sucrose. Unless otherwise indicated, all subsequent operations are done at 4° C. […] The homogenate is centrifuged first at low speed (3,000×g) for 10 minutes. […] This P2 pellet is discarded and the liquid phase is carefully decanted off in clean centrifuge tubes and recentrifuged at high speed (100,000×g) for 60 minutes. The translucent final pellet is harvested and combined in a small volume (20-50.0 ml) of 50.0 mM Tris.HCl buffer, pH 7.2. A 100 ul aliquot is withdrawn and the protein content of the preparation is determined by the Lowry's method (Lowry, O. H., Rosebrough, […]. and Randall, R. J., Protein measurement with Folin phenol reagent. J. Biol. Chem., […], 265-275, 1951). The pelleted membrane is reconstituted in 50.0 mM Tris.HCl buffer containing 0.1 mM of phenylmethylsulfonyl fluoride (PMSF) to give approximately a protein concentration of 2.5 mg per ml of tissue suspension. […] Receptor Binding Assay: […] In competition studies, experimental compounds are diluted in dimethylsulfoxide (DMSO) and added in 20 ul to wells before the introduction of tissue membranes. […] Assays are performed in triplicate. The wells are left undisturbed for 60 minutes at room temperature. Following incubation, all wells are harvested at once with a Brandel® Harvester especially designed for a 96 well plate (Brandel® Biomedical Research & Development Labs. Inc., Gaithersburg, Md., U.S.A.). The filter discs are washed with 10×1.0 ml of cold 0.9% NaCl to remove unbound ligand. Presoaking the filter sheet in 0.1% polyethyleneimine in normal saline (PEI/Saline) greatly reduces the radioactivity retained by the filter blanks. This method is routinely used. The filters are removed from the filter grid and counted in a Parkard® Cobra Gamma Counter for 1 minutes. (Packard Instrument Co., Downers Grove, Ill, U.S.A.). The binding data are analyzed by the non-linear interactive "LUNDON-1" program (LUNDON SOFTWARE Inc., Cleveland, Ohio U.S.A.).

[2] = 3 mg/kg i.v., AII 0.01 mcg/kg IV (so in the source), 30 min post dose
[3] = 3 mg/kg i.v., AII 0.05 mcg/kg IV, 30 min post dose
[4] = 3 mg/kg i.v., AII 0.05 mcg/kg IV, 60 min post dose
[5] = 3 mg/kg i.v., AII 0.05 mcg/kg IV, 90 min post dose
[6] = 3 mg/kg i.v., AII 0.05 mcg/kg IV, 120 min post dose
[7] = 3 mg/kg i.v., AII 0.05 mcg/kg IV, 180 min post dose
[8] = 3 mg/kg i.v., AII 0.05 mcg/kg IV, 240 min post dose
[9] = 3 mg/kg i.v., AII 0.05 mcg/kg IV, 300 min post dose
[10] = 3 mg/kg i.v., AII 0.1 mcg/kg IV, 60 min post dose
[11] = 3 mg/kg i.v., AII 0.1 mcg/kg IV, 90 min post dose
[12] = 3 mg/kg i.v., AII 0.1 mcg/kg IV, 120 min post dose
[13] = 3 mg/kg i.v., AII 0.1 mcg/kg IV, 180 min post dose
[14] = 3 mg/kg i.v., AII 0.1 mcg/kg IV, 240 min post dose
[15] = 3 mg/kg i.v., AII 0.1 mcg/kg IV, 300 min post dose
[16] = 10 mg/kg i.v., AII 0.05 mcg/kg IV, 30 min post dose
[17] = 10 mg/kg i.v., AII 0.05 mcg/kg IV, 60 min post dose
[18] = 10 mg/kg i.v., AII 0.05 mcg/kg IV, 90 min post dose
[19] = 10 mg/kg i.v., AII 0.05 mcg/kg IV, 120 min post dose
[20] = 10 mg/kg i.v., AII 0.05 mcg/kg IV, 180 min post dose
[21] = 10 mg/kg i.v., AII 0.05 mcg/kg IV, 240 min post dose
[22] = 10 mg/kg i.v., AII 0.05 mcg/kg IV, 300 min post dose
[23] = 10 mg/kg i.v., AII 0.1 mcg/kg IV, 30 min post dose
[24] = 10 mg/kg i.v., AII 0.1 mcg/kg IV, 60 min post dose
[25] = 10 mg/kg i.v., AII 0.1 mcg/kg IV, 90 min post dose
[26] = 10 mg/kg i.v., AII 0.1 mcg/kg IV, 120 min post dose
[27] = 10 mg/kg i.v., AII 0.1 mcg/kg IV, 180 min post dose
[28] = 10 mg/kg i.v., AII 0.1 mcg/kg IV, 240 min post dose
[29] = 10 mg/kg i.v., AII 0.1 mcg/kg IV, 300 min post dose

With CCCCc1nc2ccc(C(O)C3CCCS3(=O)=O)cc2c(=O)n1Cc1ccc(-c2ccccc2-c2nn[nH]n2)cc1 (single isomer, unassigned; isomer 1) [Example 15, 2-Butyl-6-[hydroxy(tetrahydro-2-thienyl)methyl-3-[[2'-(1H-tetrazol-5-yl)[1,1'-biphenyl]-4-yl]methyl]-4(3H)-quinazolinone S,S-dioxide isomer 1] the “% Inhibition of AII vasopressor response” value [1, 2] was 75%, the “Average Change (systolic blood pressure response to AII)” value (“Average Change” for short) [1, 2] was 12.5 mmHg and the “% Inhibition of AII vasopressor response” value [1, 3] was 88%. The “Average Change” value [1, 3] was 5 mmHg, the “% Inhibition of AII vasopressor response” value [1, 4] was 73% and the “Average Change” value [1, 4] was 11 mmHg. For the same molecule, the “% Inhibition of AII vasopressor response” value [1, 5] was 83%, the “Average Change” value [1, 5] was 7 mmHg and the “% Inhibition of AII vasopressor response” value [1, 6] was 32%. The “Average Change” value [1, 6] was 27.5 mmHg, the “% Inhibition of AII vasopressor response” value [1, 7] was 42% and the “Average Change” value [1, 7] was 23.5 mmHg. For the same molecule, the “% Inhibition of AII vasopressor response” value [1, 8] was 38%, the “Average Change” value [1, 8] was 25 mmHg and the “% Inhibition of AII vasopressor response” value [1, 9] was 26%. For the same molecule, the “Average Change” value [1, 9] was 30 mmHg, the “% Inhibition of AII vasopressor response” value [1, 10] was 63% and the “Average Change” value [1, 10] was 18.5 mmHg. The “% Inhibition of AII vasopressor response” value [1, 11] was 54%, the “Average Change” value [1, 11] was 23 mmHg and the “% Inhibition of AII vasopressor response” value [1, 12] was 45%. For the same molecule, the “Average Change” value [1, 12] was 27.5 mmHg, the “% Inhibition of AII vasopressor response” value [1, 13] was 50% and the “Average Change” value [1, 13] was 25 mmHg. For the same molecule, the “% Inhibition of AII vasopressor response” value [1, 14] was 50%, the “Average Change” value [1, 14] was 25 mmHg and the “% Inhibition of AII vasopressor response” value [1, 15] was 45%. The “Average Change” value [1, 15] was 27.5 mmHg and the IC50 (Angiotensin II Receptor) was 110 nM.
In the case of CCCCc1nc2ccc(C(C)(O)C3CCCN(C)C3=O)cc2c(=O)n1Cc1ccc(-c2ccccc2-c2nn[nH]n2)cc1 (single isomer, unassigned; isomer 1) [Example 52, 2-Butyl-6-[1-hydroxy(1-methyl-2-oxo-3-piperidinyl)ethyl]-3-[[2'-(1H-tetrazol-5-yl)-[1,1'-biphenyl]-4-yl]methyl]-4(3H)-quinazolinone, isomer 1], the “% Inhibition of AII vasopressor response” value [1, 16] is reported as 71%, the “Average Change” value [1, 16] is reported as 12.5 mmHg and the “% Inhibition of AII vasopressor response” value [1, 17] is reported as 94%. For the same molecule, the “Average Change” value [1, 17] was 2.5 mmHg, the “% Inhibition of AII vasopressor response” value [1, 18] was 76% and the “Average Change” value [1, 18] was 10 mmHg. The “% Inhibition of AII vasopressor response” value [1, 19] was 59%, the “Average Change” value [1, 19] was 17.5 mmHg and the “% Inhibition of AII vasopressor response” value [1, 20] was 47%. For the same molecule, the “Average Change” value [1, 20] was 22.5 mmHg, the “% Inhibition of AII vasopressor response” value [1, 21] was 29% and the “Average Change” value [1, 21] was 30 mmHg. The “% Inhibition of AII vasopressor response” value [1, 22] was 47%, the “Average Change” value [1, 22] was 22.5 mmHg and the “% Inhibition of AII vasopressor response” value [1, 23] was 85%. For the same molecule, the “Average Change” value [1, 23] was 7.5 mmHg, the “% Inhibition of AII vasopressor response” value [1, 24] was 90% and the “Average Change” value [1, 24] was 5 mmHg. For the same molecule, the “% Inhibition of AII vasopressor response” value [1, 25] was 70%, the “Average Change” value [1, 25] was 15 mmHg and the “% Inhibition of AII vasopressor response” value [1, 26] was 80%. The “Average Change” value [1, 26] was 10 mmHg, the “% Inhibition of AII vasopressor response” value [1, 27] was 55% and the “Average Change” value [1, 27] was 22.5 mmHg. The “% Inhibition of AII vasopressor response” value [1, 28] was 45%, the “Average Change” value [1, 28] was 27.5 mmHg and the “% Inhibition of AII vasopressor response” value [1, 29] was 45%. The “Average Change” value [1, 29] was 27.5 mmHg and the IC50 (Angiotensin II Receptor) was 62 nM.
